Data reported in US8455552B2, “Composition comprising S-allylmercapto-N-acetylcysteine (ASSNAC) for up-regulation of cellular glutathione level” (RAMOT et Tel Aviv University Ltd., priority 2007, dated 2013).
Like-named read-outs stand apart in the source and are kept apart here.

How the values were obtained:
TNFα = experiment: Gene expression by real-time PCR in EC: TNFα; assay type: cell-based, bovine; conditions: 3 hours; ASSNAC 0.2 mM, LPS 1 μg/ml
Text: (§1) Total RNA was collected by EZ-RNA 2 kit, treated with DNAse, converted to cDNA and assayed in triplicate by real-time quantitative PCR using a ABI Prism 7700 Sequence Detector System (Applied Biosystem, Foster City, Calif., USA), with Absolute SYBR Green ROX mix and analyzed (SDS 2.1 software). Primers: human glutamate-cysteine-ligase modifier subunit (GCLM)—Forward: 5′[…] GTAAC3′ • and Reverse: 5′[…]3′; • Human heme oxygenase-1 (HO-1)—Forward: 5′[…]3′ • and Reverse: 5′[…]3′; • bovine TGF β2—Forward: […] • and Reverse: […]; • bovine TNF-alfa—Forward: […] • and Reverse: […]; • bovine ICAM-1—Forward: […] • and Reverse: […]; • bovine VCAM-1 Forward: […] • and Reverse: […]. • Results were normalized based on the quantity of human β-actin. Primers—Forward: 5′CCTGGCACCCAGCACAAT3′ and Reverse: 5′[…]3′.
(§2) The effect of ASSNAC on gene expression was further shown to be specific. Endothelial cells (EC) were treated by ASSNAC (0.2 mM) and LPS (1 μg/ml) for 3 hours following by mRNA extraction. The expression of the inflammatory genes TGF β2, ICAM-1, VCAM-1 and TNFα was then studied by Real-Time PCR. […] Only TGF β2 was induced by ASSNAC and to a lesser extent by LPS. TNFα expression was not induced by either ASSNAC or LPS (Table 2B).

TGF β2 = experiment: Gene expression by real-time PCR in EC: TGF β2; assay type: cell-based, bovine; conditions: 3 hours; ASSNAC 0.2 mM, LPS 1 μg/ml
Text: as §1, §2

ICAM-1 = experiment: Gene expression by real-time PCR in EC: ICAM-1; assay type: cell-based, bovine; conditions: 3 hours; ASSNAC 0.2 mM, LPS 1 μg/ml
Text: as §1, §2

VCAM-1 = experiment: Gene expression by real-time PCR in EC: VCAM-1; assay type: cell-based, bovine; conditions: 3 hours; ASSNAC 0.2 mM, LPS 1 μg/ml
Text: as §1, §2

[1] = tested on: Bovine aortic endothelial cells (EC); conditions: from L. Horev-Azaria, Ph.D. Thesis, cited from earlier work
heme oxygenase-1 (HO-1) = experiment: Gene expression by real-time PCR in EC: HO-1; assay type: cell-based, bovine; conditions: 3 hours; NAC 2 mM, ASSNAC 0.2 mM
Text: as §1
(§3) Increased expression of the phase II detoxifying enzymes by cells is indicative of increased protection against oxidative stress. In order to determine the effect of NAC and ASSNAC on gene expression in EC, cells were treated with NAC (2 mM) and ASSNAC (0.2 mM) for 3 hours following by extraction of mRNA. The expression of GCLM and HO-1 was then studied by Real-Time PCR. […] Without being bound by any theory or mechanism of action, the GCLM activity and the cystein level are considered to be the rate limiting step of the glutathione synthesis. […]

[2] = tested on: Bovine aortic endothelial cells (EC); experiment: Determination of total glutathione in endothelial cell cultures; assay type: cell-based; conditions: for glutathione cellular level as a function of time: FIG. 2A; for EC50: Bos taurus, Endothelial cell, concentration giving half-maximal increase of glutathione level, read-out: HALF-maximal (effect of increased glutathione level); for Maximal effect (increased glutathione level): concentration giving maximal increase of glutathione level
Method: (§4) Bovine aortic endothelial cells (EC) were prepared from bovine aorta, cultured in DMEM supplemented with 5% fetal calf serum, 5% calf serum, 2 mM L-glutamine, 100 U/ml penicillin, 100 μg/ml streptomycin, 12.5 U/ml nystatin and FGF-2 (3 ng/ml; added every 48 hours). Cultures were incubated at 37° C. in a humidified 10% CO2 atmosphere and passages 12-18 were used for experiments.
(§5) EC cultures were incubated in the presence or absence of PDTC, NAC, ASSNAC and their combinations. At the end of the incubation, cells were washed, collected into 10 mM HCl and further lyzed by samples freezing (in liquid nitrogen) and thawing, 3 times. Cell protein was precipitated by addition of SSA (10%) followed by centrifugation at 10,000 g and supernatant was collected for glutathione determination. Total glutathione (GSH+GSSG) was determined by the Anderson recycling method. Briefly, a reaction mixture containing phosphate buffer, EDTA, DTNB, NADPH and glutathione reductase was added to 96-wells plates already containing 20 μl of the experimental samples or a GSSG standard. The plates were shaken and OD at 405 nm was monitored at 10 sec intervals for 130 sec in a micro-plate reader. To determine the GSSG level in the total cellular glutathione, 2-vinylpyridine was used to conjugate GSH and remove it from the mixture followed by total glutathione determination as described above. For normalization, the protein pellet of each sample was lyzed in 0.2 N NaOH and quantified by the Lowry method.

Endothelial cells (EC) = experiment: Cytotoxicity test, BuOOH-stimulated cytotoxicity in endothelial cells (Neutral Red); assay type: cell-based, bovine; conditions: pre-incubation 18 hours; ASSNAC 0.2 mM vs NAC 1 mM and CSSA 0.2 mM; BuOOH 0.1 mM 3 hours
Method: as §4
Endothelial cells (EC; 10^4 cells/well) were grown till confluency in fibronectin-coated (5 μg/ml) 96 wells plates. Confluent EC were pre-incubated with ASSNAC 0.2 mM, CSSA 0.2 mM and NAC 1 mM for 18 hours in growth medium at 37° C. Subsequently, cells were washed with serum free DMEM medium and treated with […] ([…]) 0.1 mM for 3 hours. The number of viable cells was determined by Neutral Red (NR) staining method. After removing the culture medium, cells were incubated in NR working solution (1:100 in DCCM) for 2 hours at 37° C. […] Optical density of the dye was determined at 550 nm in an ELISA reader. The cell cytotoxicity was calculated by the following formula: Cytotoxicity (%)=[1−NR uptake in treated wells/NR uptake in control wells]×100 The control (untreated wells) were determined as 0% cytotoxity, the average of triplicates of each treatment is shown.

[3] = tested on: glutamate-cysteine-ligase modifier subunit (GCLM); experiment: Gene expression by real-time PCR in EC: GCLM; assay type: cell-based, bovine; conditions: 3 hours; NAC 2 mM, ASSNAC 0.2 mM
Text: as §1, §3

[4] = tested on: human neuroblastomas SH-SY5Y cell line; experiment: Cellular glutathione level in SH-SY5Y cultures; assay type: cell-based
Method: In order to establish the potential effect of ASSNAC on glutathione up-regulation in the nerve system as a mean to protect against neurodegenerative diseases the effect of ASSNAC on the human neuroblastomas SH-SY5Y cell line was studied. The cells were cultured in DMEM supplemented with 10% fetal calf serum, 2 mM L-glutamine, 100 U/ml penicillin, 100 μg/ml streptomycin, 12.5 U/ml nystatin. Cultures were incubated at 37° C. in a humidified 10% CO2 atmosphere.
as §5
The effect was observable at a concentration of 0.05 mM with a 2.4-fold maximal increase in glutathione at a concentration of 0.2 mM. The results are presented as mean±SD (n=2). A significant increase in glutathione was determined by ANOVA analysis (p<0.005; FIG. 8A).
Confluent SH-SY5Y cultures were exposed to ASSNAC (0.2 mM) for various time periods. The cultures were then washed and the cellular level of total glutathione was determined. […] The results are presented as mean±SD (n=2). A significant increase in glutathione was determined by ANOVA analysis (p<0.005; FIG. 8B).

[5] = tested on: human neuroblastomas SH-SY5Y cell line; experiment: Protection of SH-SY5Y cultures against tBuOOH cytotoxicity (neutral red); conditions: then tBuOOH 1 mM 3 hours
[6] = 24 hours, increasing concentrations

| Compound | TNFα gene expression (TNFα) | TGF β2 gene expression (TGF β2) | ICAM-1 gene expression (ICAM-1) | VCAM-1 gene expression (VCAM-1) | HO-1 gene expression (heme oxygenase-1 (HO-1)) | Maximal Fold Increase (glutathione level) [2] | glutathione cellular level as a function of time ([2]; 0.2 mM) | concentration of maximal effect on glutathione level [2, 6] | EC50 [2] | Maximal effect (increased glutathione level) [2] | GCLM gene expression [3] | other results |
| --- | --- | --- | --- | --- | --- | --- | --- | --- | --- | --- | --- | --- |
| lipopolysacharide [LPS] | 0.71 | 5.7 | 19.52 | 104.7 |  |  |  |  |  |  |  |  |
| C=CCS[S+]([O-])CC=C (centres unmarked) [Allicin] |  |  |  |  |  |  |  |  |  |  |  | Maximal Fold Increase (glutathione level) [1]: 8; Maximal effect (increased glutathione level) [1]: 20 µM; EC50 ([1]; read-out: HALF-maximal (effect of increased glutathione level)): 7 µM |
| C=CCSSC[C@H](NC(C)=O)C(=O)O [ASSNAC, S-allylmercapto-N-acetylcysteine] | 0.77 | 2.14 | 1.03 | 0.94 | 8.2 ± 4.2 (n = 4) | 4 | significant increase in glutathione cellular level | 0.2 mM | 60 µM | 200 µM | 2.3 ± 1.0 (n = 4) | glutathione level after 24 hours, ASSNAC in comparison to CSSA ([2]; 0.2 mM, 24 hours): higher glutathione level; concentration at which up-regulation of glutathione level starts [2, 6]: 0.05 mM; signs of cytotoxic effect ([2]; up to a concentration of 2.0 mM, 24 hours): without any signs of cytotoxic effect; protection of cells from BuOOH oxidation stress (Endothelial cells (EC)): better protection; concentration at which increase in glutathione is observable ([4]; 24 hours): 0.05 mM; concentration of maximal increase in glutathione ([4]; 24 hours): 0.2 mM; maximal increase in glutathione ([4]; 24 hours, at 0.2 mM): 2.4 fold; time of maximal increase in glutathione ([4]; ASSNAC 0.2 mM): 24 h; cytotoxicity after ASSNAC pretreatment ([5]; ASSNAC 0.2 mM 24 hours): 25%; concentration at which decrease in cytotoxicity starts ([5]; pretreatment 24 hours): 25 µM |
| S=C(S)N1CCCC1 [PDTC, Pyrrolidine dithiocarbamate] |  |  |  |  |  |  |  |  |  |  |  | reduced glutathione (GSH) versus PDTC concentration ([2]; 24 hours, increasing concentrations, FIG. 6A): concentration dependent increase; concentration of GSH versus time ([2]; PDTC 0.1 mM, increasing time intervals, FIG. 6B): linear increase |
| C=CCSSC[C@H](N)C(=O)O [CSSA, S-allylmercaptocysteine] |  |  |  |  |  | 2 | significant increase in glutathione cellular level |  | 70 µM | 200 µM |  | speed of glutathione response ([2]; 0.2 mM, CSSA compared with ASSNAC): faster response; distribution of glutathione up-regulation between GSH and GSSG ([2]; 0.3 mM CSSA, FIG. 4): increase in GSH but not in GSSG level; GSSG level as share of the total cellular glutathione level ([2]; 0.3 mM CSSA, different time intervals): lower than 2% |
| CC(=O)N[C@@H](CS)C(=O)O [NAC, N-acetylcysteine] |  |  |  |  | 0.9 ± 0.1 (n = 3) | 2.5 |  | 2 mM | 320 µM | 500 µM | 1.0 ± 0.2 (n = 3) | time to maximal increase in glutathione level ([2]; NAC 2 mM): 6 h |
